Target: human enteropeptidase (hEP), enterokinase (Homo sapiens, UniProt P98073)
Assay: cryo-EM structure of inhibited hEP-core ([…] Å); SPR affinity; enzyme activity inhibition
Assay type: binding
Set-up: gene TMPRSS15; hEP-core resolved; SPR: commercial hEP

Chain of human enteropeptidase (hEP), enterokinase (P98073 182-784): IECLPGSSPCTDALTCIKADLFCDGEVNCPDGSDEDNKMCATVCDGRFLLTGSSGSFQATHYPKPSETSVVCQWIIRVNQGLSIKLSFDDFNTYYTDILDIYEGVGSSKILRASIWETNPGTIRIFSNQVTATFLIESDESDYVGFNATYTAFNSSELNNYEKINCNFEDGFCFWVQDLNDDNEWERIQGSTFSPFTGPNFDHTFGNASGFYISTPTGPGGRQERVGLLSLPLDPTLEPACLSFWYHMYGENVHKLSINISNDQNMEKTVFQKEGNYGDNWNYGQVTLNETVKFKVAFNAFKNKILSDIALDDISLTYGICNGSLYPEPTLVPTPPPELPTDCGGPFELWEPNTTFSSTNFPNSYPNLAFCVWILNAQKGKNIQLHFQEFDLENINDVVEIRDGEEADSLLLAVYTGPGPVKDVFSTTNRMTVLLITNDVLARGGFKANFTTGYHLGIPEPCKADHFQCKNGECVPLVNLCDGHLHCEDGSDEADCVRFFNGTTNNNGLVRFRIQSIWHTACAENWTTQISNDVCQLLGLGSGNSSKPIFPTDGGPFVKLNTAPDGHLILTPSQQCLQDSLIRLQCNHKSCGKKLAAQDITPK
Chain of human enteropeptidase (hEP), enterokinase (P98073 785-1019): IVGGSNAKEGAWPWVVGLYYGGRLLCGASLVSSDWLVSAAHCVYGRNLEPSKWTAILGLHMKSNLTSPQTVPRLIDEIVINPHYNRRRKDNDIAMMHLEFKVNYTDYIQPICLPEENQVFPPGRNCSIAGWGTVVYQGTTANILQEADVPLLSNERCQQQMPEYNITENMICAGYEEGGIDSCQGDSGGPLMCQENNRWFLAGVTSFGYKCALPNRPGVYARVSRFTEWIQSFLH

In the case of `N=C(N)c1ccc2cc(OC(=O)c3ccc(N=C(N)N)cc3)ccc2c1` [nafamostat], the Kd is reported as 95.1 µM.

From article PMC9663175, “Cryo-EM structures reveal the activation and substrate recognition mechanism of human enteropeptidase” (Nature Communications, 2022)
